Data set [1] is described as follows: Molar enthalpy of transition or fusion. Particulars: Metastable crystal; DSC.
For data set [2] the following is noted: Crystal; DTA.

± gives the expanded uncertainty stated by the source.

For `CC(C)(C)c1cc(CCC(=O)OCC(COC(=O)CCc2cc(C(C)(C)C)c(O)c(C(C)(C)C)c2)(COC(=O)CCc2cc(C(C)(C)C)c(O)c(C(C)(C)C)c2)COC(=O)CCc2cc(C(C)(C)C)c(O)c(C(C)(C)C)c2)cc(C(C)(C)C)c1O`, the “Molar enthalpy of transition or fusion” value in data set [1] came out at 15.8 ± 0.43 kcal/mol. Further, the Normal melting temperature in data set [2] stood at 112.60 ± 0.5 °C.

(Values after the NIST ThermoML archive (doi:10.1016/j.fluid.2009.09.013).)
